Measurements from ChEMBL document CHEMBL1139683, “Pyridone derivatives as potent, orally bioavailable VLA-4 integrin antagonists” (Bioorg Med Chem Lett, 2006).
pKi: −log10 of the molar value.

Key:
Rattus norvegicus = organism: Rattus norvegicus; experiment: Dose normalised AUC (0-8 hrs) in rat; assay type: ADME, organism-based; set-up: time < 8 hr; conditions: in vivo
Integrin alpha-4/beta-1 = Integrin alpha-4/beta-1 (Homo sapiens, UniProt P05556+P13612); experiment: Inhibition of integrin alpha-4-beta-1 receptor expressed in Jurkat J6 cells by SPA; assay type: cell-based
Chain of Integrin alpha-4/beta-1 (P05556 whole entry): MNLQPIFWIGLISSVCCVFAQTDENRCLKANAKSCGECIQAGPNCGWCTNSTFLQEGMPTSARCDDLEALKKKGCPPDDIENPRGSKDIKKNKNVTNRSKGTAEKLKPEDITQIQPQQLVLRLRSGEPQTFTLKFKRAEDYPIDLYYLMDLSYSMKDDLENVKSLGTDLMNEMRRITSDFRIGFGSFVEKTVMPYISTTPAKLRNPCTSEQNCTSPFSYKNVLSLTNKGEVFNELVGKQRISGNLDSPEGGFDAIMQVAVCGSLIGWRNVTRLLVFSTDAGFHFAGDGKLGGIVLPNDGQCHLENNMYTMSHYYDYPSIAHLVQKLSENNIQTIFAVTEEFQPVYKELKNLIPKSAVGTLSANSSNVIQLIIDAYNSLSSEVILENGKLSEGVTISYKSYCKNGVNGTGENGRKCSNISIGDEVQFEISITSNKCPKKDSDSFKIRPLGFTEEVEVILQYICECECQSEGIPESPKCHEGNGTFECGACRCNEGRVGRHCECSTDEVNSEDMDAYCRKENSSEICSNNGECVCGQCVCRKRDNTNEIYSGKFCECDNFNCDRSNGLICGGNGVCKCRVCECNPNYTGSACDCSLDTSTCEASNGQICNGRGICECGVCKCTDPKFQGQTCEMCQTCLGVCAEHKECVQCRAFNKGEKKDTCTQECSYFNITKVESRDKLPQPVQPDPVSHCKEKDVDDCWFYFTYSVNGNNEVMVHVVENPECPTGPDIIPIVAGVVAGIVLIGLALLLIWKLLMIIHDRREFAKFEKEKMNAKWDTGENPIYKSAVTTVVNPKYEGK
Chain of Integrin alpha-4/beta-1 (P13612 whole entry): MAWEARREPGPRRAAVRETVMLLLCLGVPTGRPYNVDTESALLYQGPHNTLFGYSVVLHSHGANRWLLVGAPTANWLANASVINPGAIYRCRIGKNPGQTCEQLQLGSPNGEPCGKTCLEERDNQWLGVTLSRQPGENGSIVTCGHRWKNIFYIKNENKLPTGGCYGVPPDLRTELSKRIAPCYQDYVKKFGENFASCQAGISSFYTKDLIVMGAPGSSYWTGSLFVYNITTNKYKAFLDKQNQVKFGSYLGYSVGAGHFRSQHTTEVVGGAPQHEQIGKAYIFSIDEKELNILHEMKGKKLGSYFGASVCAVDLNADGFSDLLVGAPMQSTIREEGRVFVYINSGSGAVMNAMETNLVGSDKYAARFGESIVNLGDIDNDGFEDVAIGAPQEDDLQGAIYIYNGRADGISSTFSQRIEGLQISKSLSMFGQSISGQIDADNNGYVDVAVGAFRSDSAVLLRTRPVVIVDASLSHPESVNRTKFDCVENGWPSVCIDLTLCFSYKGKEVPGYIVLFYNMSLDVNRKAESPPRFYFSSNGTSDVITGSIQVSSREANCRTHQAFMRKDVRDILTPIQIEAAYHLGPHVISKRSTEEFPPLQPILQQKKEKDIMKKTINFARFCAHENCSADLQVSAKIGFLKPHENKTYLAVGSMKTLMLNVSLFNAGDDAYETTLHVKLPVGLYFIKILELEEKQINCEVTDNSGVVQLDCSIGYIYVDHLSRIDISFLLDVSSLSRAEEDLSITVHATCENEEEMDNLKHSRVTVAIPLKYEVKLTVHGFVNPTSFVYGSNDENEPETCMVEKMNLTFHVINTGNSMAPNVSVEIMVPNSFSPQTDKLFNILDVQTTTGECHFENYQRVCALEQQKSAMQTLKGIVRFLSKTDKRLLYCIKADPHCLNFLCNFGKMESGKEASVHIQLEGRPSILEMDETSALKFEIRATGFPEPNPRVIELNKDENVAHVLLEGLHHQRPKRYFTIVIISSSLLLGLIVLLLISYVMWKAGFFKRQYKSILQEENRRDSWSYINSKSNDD

[1] = Bioavailability in Sprague-Dawley rat at 1 mg/kg, iv and 3 mg/kg, po; assay type: ADME, organism-based; conditions: in vivo
[2] = Clearance in iv dosed rat; assay type: ADME, organism-based; conditions: in vivo
[3] = Volume of distribution of steady state in rat; assay type: ADME, organism-based; conditions: in vivo, read-out: Vss
[4] = Half life in rat; assay type: ADME, organism-based; conditions: in vivo

Structure (SMILES)	pKi (Integrin alpha-4/beta-1)	further results
COc1cc(-c2cccn(Cc3ccc(CCC(=O)O)cc3)c2=O)ccc1NC(=O)Nc1ccccc1C		AUC (Rattus norvegicus): 6 kg·min/L
Cc1ccccc1NC(=O)Nc1ccc(-c2cccn(Cc3ccc(CCC(=O)O)cc3)c2=O)cc1	8.60	AUC (Rattus norvegicus): 3 kg·min/L
COc1cc(-c2cccn(Cc3ccc(CCC(=O)O)cc3)c2=O)ccc1NC(=O)Nc1cc(C)ccc1C	8.10	
COc1cc(-c2cccn(Cc3ccc([C@@H](C)CC(=O)O)cc3)c2=O)ccc1NC(=O)Nc1ccccc1C	9.00	
Cc1ccccc1NC(=O)Nc1ccc(-c2cccn(Cc3ccc([C@@H](C)CC(=O)O)cc3)c2=O)c(C)c1	8.60	
COc1cc(-c2cccn(Cc3ccc(CCC(=O)O)cc3)c2=O)ccc1NC(=O)Nc1ccccc1Br	8.30	
COc1cc(-c2cccn(Cc3ccc(CCC(=O)O)cc3)c2=O)ccc1NC(=O)Nc1ccc(C)cc1C	7.60	
COc1cc(-c2cccn(Cc3ccc(CCC(=O)O)cc3)c2=O)ccc1NC(=O)Nc1c(C)cccc1C	8.70	
Cc1ccccc1NC(=O)Nc1ccc(-c2cccn(Cc3ccc([C@H](C)CC(=O)O)cc3)c2=O)c(OC(F)(F)F)c1	8.40	
COc1cc(-c2cccn(Cc3ccc(CCC(=O)O)cc3)c2=O)ccc1NC(=O)Nc1ccccc1C(C)C	6.50	
Cc1ccccc1NC(=O)Nc1ccc(-c2cccn(Cc3ccc([C@@H](C)CC(=O)O)cc3)c2=O)c(OC(F)(F)F)c1	7.70	
COc1cc(-c2cccn(Cc3ccc(CCC(=O)O)cc3)c2=O)ccc1NC(=O)Nc1ccccc1NC(C)=O	8.20	
CCOc1cc(NC(=O)Nc2ccccc2C)ccc1-c1cccn(Cc2ccc([C@@H](C)CC(=O)O)cc2)c1=O	8.30	
COc1ccccc1NC(=O)Nc1ccc(-c2cccn(Cc3ccc(CCC(=O)O)cc3)c2=O)cc1OC	8.20	
COc1cc(-c2cccn(Cc3ccc(CCC(=O)O)cc3)c2=O)ccc1NC(=O)Nc1cccc(C)c1C	7.60	
CCOc1cc(NC(=O)Nc2ccccc2C)ccc1-c1cccn(Cc2ccc([C@H](C)CC(=O)O)cc2)c1=O	8.70	
CCc1cc(NC(=O)Nc2ccccc2C)ccc1-c1cccn(Cc2ccc([C@@H](C)CC(=O)O)cc2)c1=O	7.30	
CCc1cc(NC(=O)Nc2ccccc2C)ccc1-c1cccn(Cc2ccc([C@H](C)CC(=O)O)cc2)c1=O	8.20	
COc1cc(-c2cccn(Cc3ccc(CCC(=O)O)cc3)c2=O)ccc1NC(=O)Nc1ccccc1	8.80	
COc1cc(-c2cccn(Cc3ccc([C@H](C)CC(=O)O)cc3)c2=O)ccc1NC(=O)Nc1ccccc1C	9.10	bioavailability [1]: 121%; clearance [2]: 9 mL/min/kg; AUC (Rattus norvegicus): 154 kg·min/L; Vd [3]: 0.6 L/kg; half-life [4]: 1.4 h

Further lines, with some results ahead:

pKi (Integrin alpha-4/beta-1)	Structure (SMILES)	further results
8.70	Cc1ccccc1NC(=O)Nc1ccc(-c2cccn(Cc3ccc([C@@H](C)CC(=O)O)cc3)c2=O)c(Cl)c1	
9.00	Cc1ccccc1NC(=O)Nc1ccc(-c2cccn(Cc3ccc([C@H](C)CC(=O)O)cc3)c2=O)c(C)c1	
9.00	Cc1ccccc1NC(=O)Nc1ccc(-c2cccn(Cc3ccc([C@H](C)CC(=O)O)cc3)c2=O)cc1	bioavailability [1]: 22%; clearance [2]: 16 mL/min/kg; AUC (Rattus norvegicus): 14 kg·min/L; Vd [3]: 0.6 L/kg; half-life [4]: 1.3 h
7.70	Cc1ccccc1NC(=O)Nc1ccc(-c2cccn(Cc3ccc([C@@H](C)CC(=O)O)cc3)c2=O)cc1C	
7.60	Cc1ccccc1NC(=O)Nc1ccc(-c2cccn(Cc3ccc([C@@H](C)CC(=O)O)cc3)c2=O)cc1Cl	
9.00	Cc1ccccc1NC(=O)Nc1ccc(-c2cccn(Cc3ccc([C@H](C)CC(=O)O)cc3)c2=O)c(Cl)c1	
8.60	Cc1ccccc1NC(=O)Nc1ccc(-c2cccn(Cc3ccc([C@@H](C)CC(=O)O)cc3)c2=O)cc1	
9.10	Cc1ccccc1NC(=O)Nc1ccc(-c2cccn(Cc3ccc([C@H](C)CC(=O)O)cc3)c2=O)cc1Cl	
8.60	Cc1ccccc1NC(=O)Nc1ccc(-c2cccn(Cc3ccc([C@H](C)CC(=O)O)cc3)c2=O)cc1C	
